Source: ChEMBL document CHEMBL3797079, “Synergistic reduction of HIV-1 infectivity by 5-azacytidine and inhibitors of ribonucleotide reductase” (Bioorg Med Chem, 2016)
The source made the active and inactive calls. The rule behind the calls is not given here.

Columns and labels:
U373-MAGI [1] = test: Reduction in 5-aza-dCTP level in human U373-MAGI cells at 50 uM preincubated for 2 hrs followed by 5-aza-C addition measured after 4 hrs by LC-MS/MS analysis; format: functional, cell-based
U373-MAGI [2] = test: Reduction in dTTP level in human U373-MAGI cells at 200 uM after 6 hrs by LC-MS/MS analysis; format: functional, cell-based
[3] = test system: Human immunodeficiency virus 1; test: Antiviral activity against VSV-G pseudotyped HIV-1 NL4-3 infected in human U373-MAGI cells assessed as increase in frequency of C to A transversion at 50 uM incubated for 4 hrs prior to infection measured at 72 hrs post infection by illumina sequencing method relative to control; format: functional
U373-MAGI [4] = test: Reduction in dCTP level in human U373-MAGI cells at 50 uM preincubated for 2 hrs followed by 5-aza-dC addition measured after 4 hrs by LC-MS/MS analysis relative to 5-aza-dC; format: functional, cell-based
U373-MAGI [5] = test: Increase in 5-aza-dCTP/dCTP ratio in human U373-MAGI cells at 50 uM preincubated for 2 hrs followed by 5-aza-C addition measured after 4 hrs by LC-MS/MS analysis relative to 5-aza-C; format: functional, cell-based
[6] = test system: Human immunodeficiency virus 1; test: Antiviral activity against VSV-G pseudotyped HIV-1 NL4-3 infected in human U373-MAGI cells assessed as increase in frequency of T to G transversion at 50 uM incubated for 4 hrs prior to infection measured at 72 hrs post infection by illumina sequencing method relative to control; format: functional
[7] = test system: Human immunodeficiency virus 1; test: Antiviral activity against VSV-G pseudotyped HIV-1 NL4-3 infected in human U373-MAGI cells assessed as Vif mutation at 50 uM incubated for 4 hrs prior to infection measured at 72 hrs post infection by illumina sequencing method (reference value: 19.2%); format: functional
[8] = test system: Human immunodeficiency virus 1; test: Potentiation of 5-Aza-C-induced antiviral activity against VSV-G pseudotyped HIV-1 NL4-3 infected in human U373-MAGI cells assessed as Vif mutation at 50 uM incubated for 4 hrs preinfection followed by 5-Aza-C addition for 2 hrs preinfection and subsequent viral infection measured at 72 hrs post infection by illumina sequencing method (reference value: 19.2%); format: functional
U373-MAGI [9] = test: Reduction in dCTP level in human U373-MAGI cells at 50 uM preincubated for 2 hrs followed by 5-aza-C addition measured after 4 hrs by LC-MS/MS analysis; format: functional, cell-based
U373-MAGI [10] = test: Increase in 5-aza-dCTP/dCTP ratio in human U373-MAGI cells at 200 uM preincubated for 2 hrs followed by 5-aza-C addition measured after 4 hrs by LC-MS/MS analysis relative to 5-aza-C; format: functional, cell-based
[11] = test system: Human immunodeficiency virus 1; test: Potentiation of 5-Aza-C-induced antiviral activity against VSV-G pseudotyped HIV-1 NL4-3 infected in human U373-MAGI cells assessed as Pol mutation at 50 uM incubated for 4 hrs preinfection followed by 5-Aza-C addition for 2 hrs preinfection and subsequent viral infection measured at 72 hrs post infection by illumina sequencing method (reference value: 18.5%); format: functional
U373-MAGI [12] = test: Reduction in dCTP level in human U373-MAGI cells at 200 uM preincubated for 2 hrs followed by 5-aza-C addition measured after 4 hrs by LC-MS/MS analysis relative to 5-aza-C; format: functional, cell-based
[13] = test system: Human immunodeficiency virus 1; test: Antiviral activity against VSV-G pseudotyped HIV-1 NL4-3 infected in human U373-MAGI cells assessed as Pol mutation at 50 uM incubated for 4 hrs prior to infection measured at 72 hrs post infection by illumina sequencing method (reference value: 18.5%); format: functional
[14] = Cytotoxicity against human U373-MAGI cells at 50 uM measured at 72 hrs by Celltiter-Glo luminescent cell viability assay; format: cell-based
U373-MAGI [15] = test: Reduction in dCTP level in human U373-MAGI cells at 200 uM preincubated for 2 hrs followed by 5-aza-dC addition measured after 4 hrs by LC-MS/MS analysis relative to 5-aza-dC; format: functional, cell-based
U373-MAGI [16] = test: Reduction in dCTP level in human U373-MAGI cells at 50 uM after 6 hrs by LC-MS/MS analysis; format: functional, cell-based
U373-MAGI [17] = test: Increase in 5-aza-dCTP/dCTP ratio in human U373-MAGI cells at 50 uM preincubated for 2 hrs followed by 5-aza-dC addition measured after 4 hrs by LC-MS/MS analysis relative to 5-aza-dC; format: functional, cell-based
[18] = test system: Human immunodeficiency virus 1; test: Potentiation of 5-Aza-dC-induced antiviral activity against VSV-G pseudotyped HIV-1 NL4-3 infected in human U373-MAGI cells assessed as Nef mutation at 50 uM incubated for 4 hrs preinfection followed by 5-Aza-C addition for 2 hrs preinfection and subsequent viral infection measured at 72 hrs post infection by illumina sequencing method (reference value: 22.6%); format: functional
[19] = test system: Human immunodeficiency virus 1; test: Antiviral activity against VSV-G pseudotyped HIV-1 NL4-3 infected in human U373-MAGI cells assessed as reduction in U5-gag level at 50 uM measured at 6 hrs post infection by qPCR method; format: functional, organism-based
[20] = test system: Human immunodeficiency virus 1; test: Potentiation of 5-Aza-C-induced antiviral activity against VSV-G pseudotyped HIV-1 NL4-3 infected in human U373-MAGI cells assessed as increase in total mutation frequency at 50 uM incubated for 4 hrs preinfection followed by 5-Aza-C addition for 2 hrs preinfection and subsequent viral infection measured at 72 hrs post infection by illumina sequencing method relative to control; format: functional, organism-based
[21] = test system: Human immunodeficiency virus 1; test: Potentiation of 5-Aza-C-induced antiviral activity against VSV-G pseudotyped HIV-1 NL4-3 infected in human U373-MAGI cells assessed as reduction in viral infectivity at 25 to 100 uM preincubated for 2 hrs followed by 5-Aza-C addition for 2 hrs and subsequent viral infection measured at 72 hrs post infection by flow cytometric analysis; format: functional, organism-based
[22] = test system: Human immunodeficiency virus 1; test: Antiviral activity against VSV-G pseudotyped HIV-1 NL4-3 infected in human U373-MAGI cells assessed as reduction in viral infectivity preincubated for 2 to 8 hrs followed by viral infection measured at 72 hrs post infection by flow cytometric analysis; format: functional, organism-based
[23] = test system: Human immunodeficiency virus 1; test: Antiviral activity against VSV-G pseudotyped HIV-1 NL4-3 infected in human U373-MAGI cells assessed as reduction in U5-gag level at 50 uM measured at 12 to 72 hrs post infection by qPCR method; format: functional, organism-based
[24] = test system: Human immunodeficiency virus 1; test: Antiviral activity against VSV-G pseudotyped HIV-1 NL4-3 infected in human U373-MAGI cells assessed as reduction in viral infectivity at 50 uM incubated for 4 hrs prior to viral infection measured at 72 hrs post infection by flow cytometric analysis; format: functional, organism-based
U373-MAGI [25] = test: Reduction in dRGU-TP level in human U373-MAGI cells at 200 uM preincubated for 2 hrs followed by 5-aza-C addition measured after 4 hrs by LC-MS/MS analysis; format: functional, cell-based
[26] = test system: Human immunodeficiency virus 1; test: Potentiation of 5-Aza-dC-induced antiviral activity against VSV-G pseudotyped HIV-1 NL4-3 infected in human U373-MAGI cells assessed as Pol mutation at 50 uM incubated for 4 hrs preinfection followed by 5-Aza-C addition for 2 hrs preinfection and subsequent viral infection measured at 72 hrs post infection by illumina sequencing method (reference value: 18.5%); format: functional

With `Oc1ccc(/C=C/c2cc(O)cc(O)c2)cc1` [RESVERATROL] the Activity (U373-MAGI [1]) was “inactive”, the Activity (U373-MAGI [2]) was “Active” and the “fold change (FC)” value [3] was 1.3. For the same compound, the Activity (U373-MAGI [4]) was “Active”, the Activity (U373-MAGI [5]) was “Active” and the “fold change (FC)” value [6] was 3.2. For the same compound, the Activity [7] was 23.4%, the Activity [8] was 22.6% and the Activity (U373-MAGI [9]) was “Active”. The Activity (U373-MAGI [10]) was “inactive”, the Activity [11] was 21.9% and the Activity (U373-MAGI [12]) was “Active”. For the same compound, the Activity [13] was 19%, the Activity [14] was “Non-toxic” and the Activity (U373-MAGI [15]) was “Active”. For the same compound, the Activity (U373-MAGI [16]) was “inactive”, the Activity (U373-MAGI [17]) was “Active” and the Activity [18] was 20.3%. For the same compound, the Activity [19] was “Active”, the Activity [20] was “inactive” and the Activity [21] was “Active”. The Activity [22] was “Active”, the Activity [23] was “inactive” and the Activity [24] was “Active”. The Activity (U373-MAGI [25]) was “Active” and the Activity [26] was 18.9%.
